SMILES strings stand for the structures.

By melting point is commonly meant the temperature, or range, at which the solid turns liquid. Turning to `C=Cc1c(C#N)nn(-c2c(Cl)cc(C(F)(F)F)cc2Cl)c1Cl`, the melting point was in the range of 69.8 to 70.4 °C.
In turn, `O=C1CC[C@](CO)(COCc2ccccc2)O1` displayed a melting point of 78 °C.
As for `c1ccc2c(c1)C1CCC2c2c(OCC3CO3)cccc21` (configuration not stated), the melting point is 127 to 130 °C.
For `CC(C)CNC(=O)C=Cc1ccc(OCc2ccccc2)c([N+](=O)[O-])c1`, the melting point lay in the range of 166 to 167 °C.
Under `CCOC(=O)c1ccc2c(c1)sc1cc(Cl)ccc12` stands 120 to 122 °C; under `C=CCc1ccc(CCNC(=O)c2cc(Cl)ccc2OC)cc1S(N)(=O)=O`, 186 to 187 °C.
The compound `Cc1ccc(C)c(Cc2c3ccc(C(C)(C)C)cc3c(Cc3cc(C)ccc3C)c3ccc(C(C)(C)C)cc23)c1` gave a melting point of 273 to 275 °C.
With `CCc1ccc2cc(C3(Cn4ccnc4)OCCO3)ccc2c1` the figure was 251 °C; with `CC(=O)C(C)Oc1ccc2[nH]c(C)c(C(=O)OCc3ccccc3)c2c1` (configuration not stated), 94 to 98 °C; with `Cc1nc(C)c(Cl)c(NCc2nccc(N(C)CCCSCCn3c([N+](=O)[O-])cnc3C)c2Cl)n1`, 123 to 126 °C.
On to `COC(=O)Cc1c(NC(C)=O)n(C)c2ccccc12`, for which the melting point fell in the range of 126 to 128 °C.
In turn, `COC1C(O)C(COC(c2ccccc2)(c2ccccc2)c2ccccc2)OC(Oc2ccc([N+](=O)[O-])cc2)C1O` (configuration not stated) showed a melting point of 104 °C.
`Cc1cc2c(s1)S(=O)(=O)N=C(NC(C)C)N2` showed a melting point of 272 to 273 °C.
For the compound `CCOCc1nc2c(N)nc3cc(OCCCN4CCCC4=O)ccc3c2n1CCCCNS(C)(=O)=O`, the melting point was determined as 157 °C.
In the case of `COCCN(c1cccc2cc(C(=O)O)[nH]c12)S(=O)(=O)c1cccs1`, the melting point lay within 216 to 217 °C.
`CC(C)(CCCC(=O)O)c1ccc2c(c1)C(=O)c1ccc(C(C)(C)CCCC(=O)O)cc1C2=O` yielded a melting point of 222 to 224 °C.
Turning to `O=c1c2ccc(O)cc2[nH]n1Cc1ccccc1`, the melting point lay within 206 to 207 °C.
`CNc1nc(-c2cccc(-c3cncc4ccccc34)c2)c2cc(OC)c(OC)cc2n1` returned a melting point of 181 to 183 °C.
`CC(C)(C(=O)O)C1(c2ccc(Cl)cc2)CCC1` showed a melting point of 95 to 110 °C.
`COc1cc(C=NN(C)C)c([N+](=O)[O-])cc1OC` displayed a melting point of 143 to 145 °C.
Compound `COc1ccc2c(c1)C(c1ccc(N)cc1)=NN(C(=O)C1CC1)C(C)C2` (configuration not stated) gave a melting point of 93 to 95 °C.
With `C[C@H]1[C@H](N(C)C)CN1c1cc2c(cc1F)c(=O)c(C(=O)O)cn2C1CC1` (relative stereo), the melting point lay within 181 to 185 °C.
With `O=Cc1c2ccc3ccccc3c2cc2ccsc12` the figure was 199 to 200 °C; with `Cc1cc(OCC(=O)Nc2cc(C(=O)O)ccc2Cl)ccc1C(C)C`, 174 to 175 °C; with `Cn1c(CON)ncc(O)c1=O`, 106 °C.
In turn, `Cc1nn(CCO)c(C)c1Sc1ccc(Cl)cc1` had a melting point of 88.9 to 90.3 °C.
On to `NC1CCC(C(=O)Nc2cccc(-c3cccc4c3/C(=C/c3ccc[nH]3)C(=O)N4)c2)CC1` (configuration not stated), for which the melting point was 210 to 212 °C.
With `NC(=O)C(CC1CCCC1)c1ccc(Cl)c([N+](=O)[O-])c1` (configuration not stated) the figure was 112 to 114 °C; with `Cc1ccc(Sc2cncc3sc(C(=O)O)cc23)cc1`, 272 to 274 °C.
As for `O=C(O)c1ccccc1Sc1c(O)c2c(Cl)cc(Cl)cc2[nH]c1=O`, the melting point was over 300 °C.
With `CN1CC=C(c2c[nH]c3ccc(Sc4ccccc4)cc23)CC1` the figure was 225 to 228 °C; with `CS(=O)(=O)OCc1cc(-c2ccc3c(c2)CCO3)nn(Cc2ccc(Cl)cc2)c1=O`, 69 to 70 °C; with `CN(C)CCN(Cc1ccccc1)C1=NC(=O)C(=Cc2cccc(-c3cc(F)c(O)c(C45CC6CC(CC(C6)C4)C5)c3)c2)S1`, 242 to 246 °C.
`Cc1ccc(-c2cn(C)cc(-c3cccc(C)c3)c2=O)cc1` gave a melting point of 155 to 157 °C.
The compound `CN(C)S(=O)(=O)c1cc([N+](=O)[O-])ccc1Cl` registered a melting point of 138 to 140 °C.
Compound `CCOC(Nc1ccccc1)(OCC)c1cc(C(=O)c2ccc(Cl)cc2)nc(C)c1Cl` came in with a melting point of 156 to 157 °C.
The compound `Cc1cccc(NC(=O)NC2N=C(c3ccccc3F)c3ccccc3N(CCC3OCCO3)C2=O)c1` (racemic) yielded a melting point of 214 to 215 °C.
`CC1(C)CC(=O)Nc2cc3nc(-c4ccc(C#N)cc4)[nH]c3cc21` displayed a melting point of 228 to 233 °C.
In turn, `CC(=O)NCC(=O)NCC1(S)C2CC3CC(C2)CC1C3` (configuration not stated) displayed a melting point of 154 to 157 °C.
Under `CC(C)(CO)C(=O)C(Oc1ccc(Cl)cc1)n1cncn1` (configuration not stated) stands 110 to 111 °C; under `CC(C)n1nc(-c2sc(NC(=O)CCN3CCOCC3)nc2-c2ccccc2)ccc1=O`, 197 to 198 °C; under `CC(C)(C)OC(=O)c1ccccc1-c1ccc(CNC(=O)C2(N)CCOCC2)cc1`, 125 to 127 °C.
On to `Cc1nnsc1C(=O)Nc1ccc(-n2nc(-c3cccnc3)cc2C#N)cc1`, for which the melting point fell in the range of 215 to 218 °C.
As for `COc1cc(C2CCOC2=O)c([N+](=O)[O-])cc1OC` (configuration not stated), the melting point was 144 to 147 °C.
Under `C#Cc1cn(C2OC(CO)C(O)C2=C)c(=O)[nH]c1=O` (configuration not stated) stands 172 to 174 °C; under `CC(C)CNCC(=O)Nc1ccc2c(c1)C(=O)c1cc(NC(=O)CNCC(C)C)ccc1C2=O`, 146 °C.
The compound `CCCCCCCCC(c1ccccc1)S(=O)(=O)NC(=O)Nc1c(C(C)C)cccc1C(C)C` (configuration not stated) displayed a melting point of 145 to 146 °C.
On to `O=C(O)Cn1c(=O)c(=O)n(O)c2ccc(Cl)cc21`, for which the melting point was 280 to 282 °C.
Regarding `COc1ccccc1C1OC2(CCNCC2)N2CCCCC12` (configuration not stated), the melting point fell in the range of 185 to 186 °C.
Compound `Brc1ccc2c(c1)CN(Cc1c[nH]c3ccccc13)C2` displayed a melting point of 188 to 190 °C.
With `CCOC(=O)c1cc2cc(NC(C)=O)ccc2nn1`, the melting point was in the range of 256 to 258 °C.
As for `Cn1cc(C(=O)O)c(=O)c2cc(F)c(-n3cccc3)cc21`, the melting point lay within 284 to 285 °C.
With `CCOc1cc(OCc2nc(-c3ccco3)oc2C)ccc1CCl`, the melting point was 145 to 146 °C.
Regarding `CCc1noc(C)c1C(C)=NNc1ccccc1`, the melting point lay within 72 to 75 °C.
Under `CC1CCN(C(=O)C(C)Oc2ccc(Oc3ccc(C(F)(F)F)cn3)cc2)O1` (configuration not stated) stands 94 to 97 °C.
Take `O=C(O)c1cccc(-c2nc(-c3cc(Cl)sc3Cl)cs2)c1`: the melting point is 241 to 242 °C.
Consider `CCc1ccc2c(c1)C(O)(c1ccccn1)CC(C)(C)CO2` (configuration not stated), for which the melting point came out at 84 °C.
Under `CCN1CCCC1CNC(=O)c1cc(S(N)(=O)=O)cc2c1OC(C)C2` (configuration not stated) stands 164 to 165 °C.
In the case of `COc1nc(NC(=S)NS(=O)(=O)c2ccccc2)nc(OC)n1`, the melting point lay in the range of 148 to 150 °C.
With `Cn1c(=O)c(-c2ccccc2Cl)cc2cnc(NC3C4CN(Cc5ccccc5)CC43)nc21` (configuration not stated) the figure was 92 to 94 °C; with `CNc1nc(-c2cccc(NC(=O)c3cccc(OC)c3)c2)c2cc(OC)c(OC)cc2n1`, 193 to 195 °C; with `Cc1cc(C)c2c(=O)[nH]c(-c3cc(C)c(OCCN4CCCC4)c(C)c3)nc2c1`, 181 to 182 °C.
Under `O=c1cc(-c2cccc(Cl)c2)oc2ccc(OCCCCCCN3CCC(O)CC3)cc12` stands 120 to 121 °C; under `O=C(N[C@H]1CC[C@H](CCN2CCN(c3nccc4c3OCC4)CC2)CC1)C(F)(F)F`, 198 °C; under `Oc1ccc2c(nc(C(F)F)n2-c2nc(N3CCOCC3)nc(N3CCOCC3)n2)c1Cl`, over 250 °C.
Consider `CNC(=S)NCc1ccc(Br)nc1`, for which the melting point lay within 117 to 118 °C.
In turn, `COCCOc1c2ccccc2c(C=O)c2ccccc12` gave a melting point of 87 to 88 °C.
Take `CC(C)(C)OC(=O)N(Cc1ccccc1)[C@H](COP(=O)(Oc1ccccc1)Oc1ccccc1)C(=O)O`: the melting point is 108 to 109 °C.
In the case of `O=C1CCC(c2ccc3c(c2)NC(=O)CS3)=NN1`, the melting point was 299 to 302 °C.
Compound `CC(C)S(=O)(=O)C1C(=O)N(Cc2ccccc2)C(=O)c2ccc(Cl)cc21` (configuration not stated) came in with a melting point of 150 to 152 °C.
With `CCOc1ccccc1-c1cc(NC(=O)C2CCN(CC)CC2)ncn1` the figure was 65 to 67 °C; with `CCCCCC(C)Oc1cc(O)c2c(c1)OC(C)(C)C1CCC(=O)C=C21` (configuration not stated), 185 to 189 °C.
As to `Cc1noc(NS(=O)(=O)c2ccsc2NC(=O)Nc2sccc2S(=O)(=O)Nc2onc(C)c2C)c1C`, the melting point is 112 to 114 °C.
As to `CCOc1cccc2cc(S(=O)(=O)Nc3ccc(F)c(N)c3)c(=O)oc12`, the melting point fell in the range of 160 to 162 °C.
`COC(=O)C=C(Nc1cc(CCO)c([N+](=O)[O-])cc1OCc1ccccc1)C(F)(F)F`: the melting point lay in the range of 72 to 74 °C.
In turn, `COc1ccc(-c2nnc3c4ccccc4c(Nc4cccc(-c5nnn(C)n5)c4)nn23)cc1` gave a melting point of 256 to 259 °C.
The compound `Nc1nc2c(s1)CCN(CC1CC1c1ccccc1)CC2` (configuration not stated) showed a melting point of 109 to 113 °C.
Under `COc1c(C)c(C(=O)c2ccc3[nH]c(=O)n(O)c(=O)c3c2)n2ccccc12` stands 300 °C; under `CCC(CC)C(=O)Nc1ccc2ncn3c(=O)c(C(=O)O)cnc3c2c1`, 295 to 298 °C.
The compound `Nc1nc(N)nc(N2CCC3(CC2)OCCO3)n1` came in with a melting point of 209 to 211 °C.
In turn, `CCOP(=O)(OCC)c1nc(N2CCOCC2)nc(N2CCOCC2)n1` registered a melting point of 114 to 116 °C.
For the compound `CC(C)C1=C(C#N)C(c2cccc(Cl)c2Cl)c2c[nH]nc2N1` (configuration not stated), the melting point is over 250 °C.
Compound `O=C(O)c1ccccc1N1CCN(CC(O)COc2ccc3c(c2)OCO3)CC1` (configuration not stated) came in with a melting point of 229 to 231 °C.
`CN(Cc1ccc2c(c1)Nc1nccnc1S2)C(N)=C[N+](=O)[O-]` registered a melting point of over 265 °C.
The compound `CN1C(=O)C(N)C(c2ccccc2)=Nc2ccccc21` (configuration not stated) showed a melting point of 178 to 179 °C.
The compound `c1ccc2c(c1)CCN(Cc1c[nH]c3ncccc13)C2` gave a melting point of 190 to 192 °C.
Under `O=C1Nc2cc3c(cc2C12COc1cc4c(cc12)CCO4)OCCO3` (configuration not stated) stands over 250 °C.

(Values after a melting point compilation (Tetko et al.; mined from patent text by program, amines drawn as free bases though some values may be those of a salt).)
